Data: PMC7731434, “Development and Validation of a Bioanalytical Method for 3′- and 6′-Sialyllactose in Minipig Liver and Kidney Using Liquid Chromatography-Tandem Mass Spectrometry and Its Application to Analysis of Tissue Distribution” (Molecules, 2020)
Like-named read-outs stand apart in the source and are kept apart here.

Experiments:
[1] = Tissue distribution study in minipigs after intravenous administration; assay type: in vivo, Yucatan minipigs; details: minipig; for T/P Ratio Kidney/Plasma / T/P Ratio Liver/Plasma / Kp at 2 h / concentration at 2 h: 2 h after intravenous administration of 12.5 mg/kg; for T/P Ratio Kidney/Plasma / T/P Ratio Liver/Plasma / Kp at 2 h: 12.5 mg/kg; for Kp at 2 h / concentration at 2 h: Yucatan; for Kp at 2 h: iv
Experimental: A tissue distribution study was conducted involving intravenous injection of minipigs with 3′-SL and 6′-SL at a dose of 12.5 mg/kg. Kidney, liver, and blood samples were collected. The tissue to plasma (T/P) ratio was also calculated from the concentrations of 3′-SL and 6′-SL in the kidney, liver, and plasma, from the same minipigs at the same time points.
The tissue distribution of 3′-SL and 6′-SL in Yucatan minipigs was assessed following intravenous administration at a dose of 12.5 mg/kg. The animal experiments were performed in compliance with the Animal Welfare Act and Guide for the Care and Use of Laboratory Animals of Institute for Laboratory Animal Research (ILAR). The animals were kept in a single cage at constant room temperature (23 ± 3 °C) and 30–70% humidity under a regular 12-h light/12-h dark cycle. Animals were provided with approximately 25 g/kg/day food and water was freely available.
Two minipigs were sacrificed at 2 h after administration; liver and kidney tissues, and blood from the jugular vein, were then collected. Each tissue was immediately removed and washed with normal saline, blotted dry with a paper towel, cut into pieces with scissors, and individually homogenized with three volumes of normal saline (v/w) in an Ultra-Turrax apparatus (IKA Works, Wilmington, NC, USA). After blood collection into K2-EDTA tubes, blood samples were gently mixed and placed on crushed wet-ice/Kryorack (Streck Laboratories, Omaha, NE, USA). Following centrifugation at 20,740 × g for 3 min at 4 °C for separation of plasma, the plasma was transferred into labeled polypropylene tubes.
The collected tissues were analyzed using the method developed in this study, and the plasma was analyzed by the method described in our previous study (in press).

[2] = Biological sample stability: benchtop (room temperature 4 h) and long-term (-80 °C, 34 days); assay type: physicochemical, minipig; details: for Benchtop and long-term stability, RE (%): -80 °C 34 days then room temperature 4 h, n = 3; for Benchtop and long-term stability values (RE), range: all QC samples of 3′-SL and 6′-SL pooled
Experimental: (§1) Benchtop and long-term stability were evaluated simultaneously. The benchtop stability test was carried out at room temperature (24 °C) for 4 h using samples with long-term stability, i.e., those stored at −80 °C for 34 days. […] The post-preparative stability (RE) of samples after 21 h of storage at 10 °C in an autosampler tray ranged from –3.1% to 8.7% for liver QC samples and −10.2% to 4.7% for kidney QC samples of 3′-SL and 6′-SL. To investigate freeze/thaw stability, QC samples were frozen at −80 °C and thawed at room temperature over four cycles. The stability of all QC samples of 3′-SL and 6′-SL ranged from −6.7% to 7.6% for the liver and −9.3% to −3.2% for the kidney. All stability results satisfied the acceptance criterion of ±15% of the nominal concentration.
(§2) The biological samples were evaluated for benchtop, freeze/thaw, post-preparative, and long-term stability. The stability tests were performed by measuring LQC and HQC samples with three replicates. The background concentration of SL in the blank authentic tissues was set to the nominal LQC concentration in the stability test. As the background concentration of SL in the authentic matrix is similar to or higher than the LQC (60 ng/g), the deviation of the background concentration of SL markedly affects the accuracy of LQC. The background concentration of the blank samples was determined on initiation of the stability test. The HQC samples were prepared by adding a standard solution to the authentic matrix, and the results were calculated by subtracting the endogenous concentration in the blank matrix. Benchtop and long-term stability were evaluated simultaneously with the benchtop stability test carried out at room temperature (approximately 24 °C) for 4 h using samples with long-term stability (stored at −80 °C for 34 days). The post-preparative stability was assessed at 10 °C on an autosampler tray for 21 h. The freeze/thaw stability was evaluated by four cycles of freezing at −80 °C and thawing at room temperature.

[3] = Biological sample stability: post-preparative, autosampler tray; assay type: physicochemical, minipig; details: for Post-preparative stability (RE), range: 21 h at 10 °C; for Post-preparative stability, RE (%): 10 °C for 21 h, n = 3
Experimental: as §1, §2

[4] = Biological sample stability: freeze/thaw, four cycles; assay type: physicochemical, minipig; details: for Freeze/thaw stability, RE (%): four cycles -80 °C/room temperature, n = 3; for Freeze/thaw stability (RE), range: all QC samples of 3′-SL and 6′-SL pooled, four cycles
Experimental: as §1, §2

[5] = kidney / plasma, read-out: T/P Ratio Kidney/Plasma
[6] = liver / plasma, read-out: T/P Ratio Liver/Plasma
[7] = kidney, read-out: Tissue Concentration Kidney
[8] = liver, read-out: Tissue Concentration Liver
[9] = plasma, read-out: Tissue Concentration Plasma
[10] = kidney, LQC (nominal = background concentration)
[11] = liver, LQC (nominal = background concentration)
[12] = kidney QC samples of 3′-SL and 6′-SL pooled
[13] = liver QC samples of 3′-SL and 6′-SL pooled

Row | Structure (SMILES) | T/P Ratio Kidney/Plasma [1] | T/P Ratio Liver/Plasma [1] | Kp at 2 h [1, 5] | Kp at 2 h [1, 6] | concentration at 2 h [1, 7] [ng/g] | concentration at 2 h [1, 8] [ng/g] | concentration at 2 h [1, 9] [ng/g] | Benchtop and long-term stability, RE (%) ([2]; kidney, HQC 15,000 ng/g) | Benchtop and long-term stability, RE (%) [2, 10] [%] | Benchtop and long-term stability values (RE), range ([2]; kidney) | Benchtop and long-term stability, RE (%) ([2]; liver, HQC 15,000 ng/g) | Benchtop and long-term stability, RE (%) [2, 11] [%] | Benchtop and long-term stability values (RE), range ([2]; liver) | Post-preparative stability (RE), range [3, 12] | Post-preparative stability, RE (%) ([3]; kidney, HQC 15,000 ng/g) | Post-preparative stability, RE (%) [3, 10] [%] | Post-preparative stability (RE), range [3, 13] | Post-preparative stability, RE (%) ([3]; liver, HQC 15,000 ng/g) | Post-preparative stability, RE (%) [3, 11] [%] | Freeze/thaw stability, RE (%) ([4]; kidney, HQC 15,000 ng/g) | also measured
1 | CC(=O)N[C@H]1[C@H]([C@H](O)[C@H](O)CO)O[C@@](O[C@H]2[C@@H](O)[C@@H](CO)O[C@@H](O[C@H]3[C@H](O)[C@@H](O)[C@H](O)O[C@@H]3CO)[C@@H]2O)(C(=O)O)C[C@@H]1O [3′-SL, 3′-sialyllactose] | 1.0 | 0.12 | 1 to 1.3 | 0.12 to 0.14 | 22300 | 2550 | 21500 | −6.0 | −9.2 | −10.1% to −6.0 | −5.3 | −7.6 | −7.6% to 3.7 | −10.2% to 4.7 | −3.3 | −10.2 | –3.1% to 8.7 | −2.7 | −1.3 | −8.0 | Freeze/thaw stability, RE (%) [4, 10]: −3.2%; Freeze/thaw stability (RE), range ([4]; kidney): −9.3% to −3.2; Freeze/thaw stability, RE (%) ([4]; liver, HQC 15,000 ng/g): −6.7%; Freeze/thaw stability, RE (%) [4, 11]: −5.8%; Freeze/thaw stability (RE), range ([4]; liver): −6.7% to 7.6
2 | CC(=O)NC1C(O)CC(OCC2OC(OC3C(CO)OC(O)C(O)C3O)C(O)C(O)C2O)(C(=O)O)OC1C(O)C(O)CO (stereo not drawn) [6′-SL, 6′-sialyllactose] | 1.3 | 0.14 | 1 to 1.3 | 0.12 to 0.14 | 27000 | 3030 | 21000 | −6.7 | −10.1 | −10.1% to −6.0 | −3.3 | 3.7 | −7.6% to 3.7 | −10.2% to 4.7 | 4.7 | 0.5 | –3.1% to 8.7 | 8.7 | −3.1 | −9.3 | Exposure of tissues to 6′-SL higher than that of 3′-SL ([1]; liver and kidney, 2 h after i.v. 12.5 mg/kg): approximately 20%; Freeze/thaw stability, RE (%) [4, 10]: −6.8%; Freeze/thaw stability (RE), range ([4]; kidney): −9.3% to −3.2; Freeze/thaw stability, RE (%) ([4]; liver, HQC 15,000 ng/g): −5.3%; Freeze/thaw stability, RE (%) [4, 11]: 7.6%; Freeze/thaw stability (RE), range ([4]; liver): −6.7% to 7.6
